Laboratory results as given in US6890951B2, “Treatment of addiction and addiction-related behavior” (Brookhaven Science Associates LLC, priority 1998, dated 2005).
“Also recorded” adds a separate entry of the source. Where two headings read alike, the source gives them in different places.

Legend:
NAc DA = assay: Microdialysis: cocaine/heroin (speedball) induced increases in NAc DA; format: in vivo, rats; conditions: cocaine 20 mg/kg i.p. or heroin 0.5 mg/kg i.p. alone
Description: In vivo microdialysis studies were performed using adult male Sprague-Dawley rats (Taconic Farms) as detailed previously (Morgan and Dewey, 1998). Cocaine, a dopamine reuptake inhibitor, (n=6-8) was administered (i.p.) at a dose of 20 mg/kg while heroin, an indirect dopamine releaser, (n=6-8) was administered (i.p.) at a dose of 0.5 mg/kg. In studies designed to investigate the synergistic effects of a cocaine/heroin combination (n=6-8), both drugs were administered at the identical dose used in the single drug studies. Alone cocaine produced a marked elevation in extracellular DA of approximately 380% above baseline values, 60 minutes following administration. DA returned to baseline within 120 minutes. In contrast, heroin increased NAc DA by only 70%, 60 minutes following administration, returning to baseline within 140 minutes. However, when combined, the two drugs produced an increase in NAc DA of approximately 1000%, 180 minutes following administration that had not returned to baseline values by 200 minutes after reaching peak values (FIG. 9).

[1] = tested on: synaptic DA ([11C]-raclopride binding, corpus striatum); assay: Primate PET: [11C]-raclopride DV ratio after cocaine challenge; format: in vivo, baboons (Papio anubis); conditions: Group 2: cocaine hydrochloride 0.5, 1.0 or 2.0 mg/kg, 5 or 30 minutes prior to second [11C]-raclopride injection
Description: Arterial blood samples were obtained throughout the study and selected plasma samples were analyzed for the presence of unchanged radio tracer carbon-11. Animals were not removed from the gantry between isotope injections. Regions of interest (ROI's) were drawn directly on the PET images. Briefly, the corpus striatum was outlined, bilaterally, on every transaxial slice upon which it appeared. The cerebellar ROI was drawn across the midline at the level of the cerebellar vermis. ROI's from the first study were then copied directly onto the corresponding slice from the second. By examining placement of the ROI's on the second scan changes could be made, if necessary, in ROI position only. This multi planar method of analysis reduced differences that may arise due to movement of the animal within the gantry during the scanning interval.
A graphical method for determining the distribution volume (DV) was developed previously for the kinetic analysis of the [^11C]-raclopride data. The DV ratio was the most reproducible measure of raclopride uptake. The ratio is the DV from a receptor-rich region (corpus striatum) to the DV of a non-receptor region (cerebellum). The free receptor concentration was directly proportional to the DV ratio of 1. […]

[2] = tested on: extracellular DA levels in the NACC; assay: Microdialysis: cocaine-induced increases in extracellular DA, earlier studies
freely moving rats = assay: Cocaine-induced stereotypy after a sensitizing regimen of cocaine; format: in vivo
Description: The phenomenon of sensitization is observed with virtually all drugs of addiction. Sensitization is believed to play a role in the etiology of addiction.
Animals received 15 mg/kg i.p. of cocaine and stereotypy was determined in standard locomotor cages. For 6 consecutive days, animals received 15 mg/kg i.p. of cocaine once a day in their home cages. Eight days later, animals were rechallenged with 15 mg/kg i.p. of cocaine and stereotypy was determined. A five point rating scale was used to assess stereotypy and the rater was blind to the treatment received by each animal.

male Sprague-Dawley rats = format: in vivo
Source text: In all rodent studies, male Sprague-Dawley rats were used (200-225 g, Taconic farms, Germantown, N.Y.). Animals were allowed to acclimate to the animal housing facility for at least 5 days prior to beginning the experiments. […] The conditioning procedure for the acquisition phase consisted of 12 sessions carried out consecutively over 12 days.
The animals in each group were randomly assigned to a 2×2 factorial design with one factor being the pairing chamber and the other factor being the order of conditioning. The animals that received either saline or cocaine were injected and confined to the appropriate compartment for 30 minutes.
[…] The amount of time spent in each chamber was recorded using an automated infrared beam electronically coupled to a timer.
In this example the procedure outlined in Section 2 of Materials and Methods was followed.

serotonin (5-HT) = assay: Microdialysis Example 15: extracellular serotonin after nicotine; format: in vivo
Description: (§1) Briefly, two days prior to the microdialysis experiments, siliconized guide cannulae were implanted targeting the NAcc (A=+1.5 mm, L=−1.0 mm, V=−5.6 mm). […] Dialysate samples were assayed for monoamine content by microbore high-pressure liquid chromatography (HPLC) coupled with electrochemical detection. […] Peak effects were analyzed with a one-way ANOVA, and post-hoc Bonferroni t-test of topiramate pretreated groups compared to saline pretreated controls provided ANOVA significance at a critical value of 0.05.

[3] = tested on: extracellular dopamine in the nucleus accumbens; assay: Microdialysis: Topiramate on nicotine-induced increases in nucleus accumbens dopamine (Example 14); format: in vivo, rats; conditions: Rattus norvegicus, ip, 60 mins pretreatment
Description: These studies were performed using the identical experimental technique we have successfully used in more than 5000 microdialysis studies in rats. Adult male Sprague-Dawley rats (200-300 g, Taconic Farms) were anesthetized with ketamine HCl/xylazine (100 mg/kg), and siliconized guide cannulae are stereotactically implanted in the NACC (1.5 mm anterior to bregma, 1 mm lateral to bregma, and 5.6 mm ventral from the cortical surface, Paxinos and Watson, 2nd edition, 1986) two days prior to the microdialysis experiment.
On the day of the microdialysis study, rats are placed in a bowl at least 2 hrs prior to fraction collection. […]
Ten minute samples are collected within the injection loop (50 μl), injected online and analyzed until three sequential injections differ by less than 10 percent. […]
As stated previously, the first three data points that differ by less than 10% are used as the basal levels, and subsequent measurements made following a challenge drug are converted to a percentage of these values. All subsequent analyses are determined using the ‘percentage of basal’ values.
Locomotor activity was monitored throughout the entire period of study using an Optical Animal Activity Monitor (Bioanalytical Systems, West Lafayette, Ind.), which uses an optical sensor and records activity on both a chart recorder and via computer. […]

norepinephrine (NE) = assay: Microdialysis Example 15: extracellular norepinephrine after nicotine; format: in vivo
Description: as §1

[4] = tested on: mesolimbic extracellular dopamine (DA), NAcc; assay: Microdialysis Example 15: extracellular dopamine after nicotine; format: in vivo
Description: as §1

Sprague-Dawley rats = assay: Gross locomotor activity (Optical Animal Activity Monitor); format: in vivo; conditions: for nicotine-induced increases in gross locomotor activity: topiramate 25 and 50 mg/kg
Source text: Locomotor activity was monitored throughout the entire period of study using an Optical Animal Activity Monitor (Bioanalytical Systems, West Lafayette, Ind.), which uses an optical sensor and records activity on both a chart recorder and via computer.
Locomotor data was collected with the Optical Animal Activity Monitor (OAAM, BAS, West Lafayette, Ind.). This system is attached to the microdialysis “Raturn®” machines and measures locomotor activity through an optical sensor attached directly to the animal. Output from the Raturn® gives a direct index of locomotor activity.

[5] = tested on: extracellular dopamine in the nucleus accumbens; assay: Microdialysis: Topiramate on cocaine-induced increases in nucleus accumbens dopamine; format: in vivo, rats; conditions: Topiramate 40 mg/kg i.p. 60 minutes prior to cocaine challenge
Description: In this example, we examined the effects of Topiramate sixty minutes prior to a cocaine challenge. The Topiramate was administered as an intraperitoneal injection, of 40 mg/kg, 60 minutes prior to a cocaine challenge.

[6] = acquisition, Saline/Cocaine pairing, cocaine 20 mg/kg (Table IV)
[7] = acquisition, Saline/Cocaine pairing, cocaine 20 mg/kg (Table V)
[8] = acquisition, Saline/Cocaine pairing, cocaine 20 mg/kg (Table VI)
[9] = expression, Saline/Cocaine pairings, saline on test day (Table IX)
[10] = expression, Saline/Cocaine pairings, saline on test day (Table VII)
[11] = expression, Saline/Cocaine pairings, saline on test day (Table VIII)
[12] = expression, Saline/Cocaine pairings, saline on test day (Table X)

With COC(=O)[C@H]1[C@@H](OC(=O)c2ccccc2)C[C@@H]2CC[C@H]1N2C [Cocaine] the “time for DA to return to baseline” value (NAc DA) was at most 120 min, the “reduction in the mean DV ratio” value [1] was “greater than 30%” and the “increase of NACC DA levels (rank order)” value [2] was 450%. For the same compound, the “Stereotypies on Day 15” value (freely moving rats; cocaine 15 mg/kg i.p. rechallenge after sensitizing regimen, 1 ml/kg i.p. 0.9% NaCl before) was 4.1 ± 0.5, the “Stereotypy score on Day 1” value (freely moving rats; cocaine 15 mg/kg i.p., group later given 0.9% NaCl, five point rating scale) was 2.5 ± 0.4 and the “Time spent in chambers, Unpaired” value (male Sprague-Dawley rats; acquisition, Saline/Cocaine pairing, cocaine 20 mg/kg (Table III)) was 3.9 ± 0.4 min. For the same compound, the “Time spent in chambers, Paired” value (male Sprague-Dawley rats; acquisition, Saline/Cocaine pairing, cocaine 20 mg/kg (Table III, 75 mg/kg GVG experiment)) was 11.1 ± 0.3^4 min, the “Time spent in chambers, Paired” value (male Sprague-Dawley rats; [6]) was 11.8 ± 0.5^4 mins and the “Time spent in chambers, Unpaired” value (male Sprague-Dawley rats; [6]) was 3.2 ± 0.5 min. The “Time spent in chambers, Paired” value (male Sprague-Dawley rats; [7]) was 11.6 ± 0.5^4 min, the “Time spent in chambers, Unpaired” value (male Sprague-Dawley rats; [7]) was 3.4 ± 0.4^5 min and the “Time spent in chambers, Paired” value (male Sprague-Dawley rats; [8]) was 11.2 ± 0.6^4 mins. For the same compound, the “Time spent in chambers, Unpaired” value (male Sprague-Dawley rats; [8]) was “.8 ± 0.5^5 mins”, the “Time spent in chambers, Paired” value (male Sprague-Dawley rats; cocaine 5.0 mg/kg i.p.) was 8.2 ± 0.4 min and the “Time spent in chambers, Unpaired” value (male Sprague-Dawley rats; cocaine 5.0 mg/kg i.p.) was 6.8 ± 0.5 min. The “Time spent in chambers, Paired” value (male Sprague-Dawley rats; cocaine 10.0 mg/kg i.p.) was 9.6 ± 0.5^2 mins, the “Time spent in chambers, Unpaired” value (male Sprague-Dawley rats; cocaine 10.0 mg/kg i.p.) was 5.4 ± 0.3 min and the “Time spent in chambers, Paired” value (male Sprague-Dawley rats; cocaine 20.0 mg/kg i.p.) was 11.8 ± 0.4^3 mins. For the same compound, the “Time spent in chambers, Unpaired” value (male Sprague-Dawley rats; cocaine 20.0 mg/kg i.p.) was 3.2 ± 0.4^4 mins, the “Time spent in chambers, Paired” value (male Sprague-Dawley rats; [9]) was 11.1 ± 0.5^3 min and the “Time spent in chambers, Unpaired” value (male Sprague-Dawley rats; [9]) was 3.9 ± 0.4^4 min. The “Time spent in chambers, Paired” value (male Sprague-Dawley rats; [10]) was 11.8 ± 0.5^3 min, the “Time spent in chambers, Unpaired” value (male Sprague-Dawley rats; [10]) was 3.2 ± 0.5 min and the “Time spent in chambers, Paired” value (male Sprague-Dawley rats; [11]) was 12.2 ± 0.6^3 min. For the same compound, the “Time spent in chambers, Unpaired” value (male Sprague-Dawley rats; [11]) was 2.8 ± 0.5 min, the “Time spent in chambers, Paired” value (male Sprague-Dawley rats; [12]) was 12.5 ± 0.8^3 min and the “Time spent in chambers, Unpaired” value (male Sprague-Dawley rats; [12]) was 2.5 ± 0.6^4 min.

For CC1(C)O[C@@H]2[C@@H](CO[C@@]3(COS(N)(=O)=O)OC(C)(C)O[C@@H]23)O1 [Topiramate], the “inhibition of nicotine-induced increases in 5-HT activity” value (serotonin (5-HT); topiramate 25 or 50 mg/kg) was “not”, the “increase in basal 5-HT activity” value (serotonin (5-HT); topiramate alone, non-significant) was 20% and the inhibition at 25 mg/kg ([3]; topiramate 25 mg/kg ip) was about 50%. For the same compound, the inhibition at 50 mg/kg ([3]; topiramate 50 mg/kg ip) was about 70%, the inhibition at 25 mg/kg (norepinephrine (NE); topiramate 25 mg/kg, read-out: inhibition of nicotine-induced increases in NE activity) was 53% and the inhibition at 50 mg/kg (norepinephrine (NE); topiramate 50 mg/kg, read-out: inhibition of nicotine-induced increases in NE activity) was 60%. For the same compound, the “extracellular basal NE concentrations” value (norepinephrine (NE); topiramate alone) was “did not produce any significant changes”, the “reduction of the NAcc DA response to acute nicotine” value ([4]; topiramate 25 mg/kg) was 67% and the “reduction of the NAcc DA response to acute nicotine” value ([4]; topiramate 50 mg/kg) was 83%. The “neurochemical sensitization (nicotine-induced NAcc DA release)” value ([4]; topiramate 75 mg/kg, animals pretreated with nicotine for 14 days) was “dramatically reduced”, the “extracellular basal DA concentrations” value ([4]; topiramate alone) was “did not produce any significant changes” and the “gross locomotor activity, topiramate alone” value (Sprague-Dawley rats; 25 and 50 mg/kg) was “did not alter gross locomotor activity; also recorded: did not attenuate gross locomotor activity”. For the same compound, the “nicotine-induced increases in gross locomotor activity” value (Sprague-Dawley rats) was “significantly attenuate”, the “nicotine-induced increases in gross locomotor activity” value (Sprague-Dawley rats; listed as topiramate) was “markedly attenuated” and the “attenuation of cocaine-induced increases in extracellular dopamine” value [5] was “approximately 15%”.
